Measurements as given in ChEMBL document CHEMBL1133497, “Design and synthesis of anticonvulsive agents as gamma-vinyl GABA-based potential dual acting prodrugs and their biological activities” (2000).

Key:
Format in all cases: functional
Mus musculus [1] = species on record: Mus musculus; assay: Effective dose required for anticonvulsive activity in maximal electroshock seizure (MES) test
Mus musculus [2] = species on record: Mus musculus; assay: Effective dose required for anticonvulsive activity in bicuculline (BIC) test
Mus musculus [3] = species on record: Mus musculus; assay: Anticonvulsive activity in picrotoxin (PCR) induced seizure test
Mus musculus [4] = species on record: Mus musculus; assay: Effective dose required for anticonvulsive activity in pentylenetetrazole (PTZ) test
Mus musculus [5] = assay: Protection from picrotoxin-induced (0.27 mmol/kg) convulsion over 6 hr at 100 mg/kg in 4 mice
Mus musculus [6] = assay: Protection from picrotoxin-induced (0.27 mmol/kg) convulsion over 9 hr at 100 mg/kg in 4 mice
Mus musculus [7] = assay: Protection from picrotoxin-induced (0.27 mmol/kg) convulsion over 16 hr at 100 mg/kg in 4 mice
Mus musculus [8] = assay: Protection from picrotoxin-induced (0.27 mmol/kg) convulsion over 3 hr at 100 mg/kg in 4 mice
Mus musculus [9] = species on record: Mus musculus; assay: Effective dose required for anticonvulsive activity in bicuculline (BIC) test; Not effective
Mus musculus [10] = species on record: Mus musculus; assay: Effective dose required for anticonvulsive activity in maximal electroshock seizure (MES) test; Not effective
Mus musculus [11] = species on record: Mus musculus; assay: Effective dose required for anticonvulsive activity in pentylenetetrazole (PTZ) test; Not effective
Mus musculus [12] = assay: Effective dose required for anticonvulsive activity in pentylenetetrazole (PTZ) test at >0.1 mmol/kg
Mus musculus [13] = species on record: Mus musculus; assay: Anticonvulsive activity in picrotoxin (PCR) induced seizure test (ineffective)

SMILES	ED50 (Mus musculus [1]) [µmol/kg]	ED50 (Mus musculus [2]) [µmol/kg]	ED50 (Mus musculus [3]) [µmol/kg]	ED50 (Mus musculus [4]) [µmol/kg]	No. of mice protected (Mus musculus [5])	No. of mice protected (Mus musculus [6])	No. of mice protected (Mus musculus [7])	No. of mice protected (Mus musculus [8])	ED50 (Mus musculus [9]) [µmol/kg]	ED50 (Mus musculus [10]) [µmol/kg]	ED50 (Mus musculus [11]) [µmol/kg]	ED50 (Mus musculus [12]) [µmol/kg]	ED50 (Mus musculus [13]) [µmol/kg]
C=CC(CCC(=O)OC)NC(=O)C1CCNCC1 (stereo not drawn)	> 540	460	390	> 540	–	–	–	–	–	–	–	–	–
C=CC(N)CCC(=O)N1CCCC(C(=O)OC)C1 (stereo not drawn)	> 540	140	100	150	0	0	0	2	–	–	–	–	–
C=CC(CCC(=O)OC)NC(=O)C1CCCNC1 (stereo not drawn)	> 540	310	260	410	–	–	–	–	–	–	–	–	–
O=C(O)C1CCCNC1 (stereo not drawn) [NIPECOTIC ACID]	–	–	–	–	–	–	–	–	> 1000	> 1000	–	–	–
O=C(O)C1CCNCC1 [ISONIPECOTIC ACID]	–	–	–	–	–	–	–	–	> 1000	–	–	–	–
C=CC(N)CCC(=O)N1CCC(C(=O)OC)CC1 (stereo not drawn)	> 540	150	260	320	2	0	0	2	–	–	–	–	–
C=CC(N)CCC(=O)O (stereo not drawn) [VIGABATRIN]	–	220	210	–	4	3	0	4	–	> 1000	> 1000	–	–
C=CC(N)CCC(=O)N1CCCC1=O (stereo not drawn)	> 540	200	260	> 540	–	–	–	–	–	–	–	–	–
O=C1CCCN1 [2-PYRROLIDONE]	–	–	–	–	–	–	–	–	> 1000	> 1000	–	540	> 1000
